Data on 46 molecules can be found in ChEMBL document CHEMBL1133669 (J Med Chem, 2000).

Assay [1] deals with Carbonic anhydrase 1 (Homo sapiens, UniProt P00915).
Description: Inhibitory activity against human carbonic anhydrase I (CA1)
The target in assay [2] is T1, Carbonic anhydrase 4 (Bos taurus, UniProt Q95323).
T1 sequence (Q95323 whole entry): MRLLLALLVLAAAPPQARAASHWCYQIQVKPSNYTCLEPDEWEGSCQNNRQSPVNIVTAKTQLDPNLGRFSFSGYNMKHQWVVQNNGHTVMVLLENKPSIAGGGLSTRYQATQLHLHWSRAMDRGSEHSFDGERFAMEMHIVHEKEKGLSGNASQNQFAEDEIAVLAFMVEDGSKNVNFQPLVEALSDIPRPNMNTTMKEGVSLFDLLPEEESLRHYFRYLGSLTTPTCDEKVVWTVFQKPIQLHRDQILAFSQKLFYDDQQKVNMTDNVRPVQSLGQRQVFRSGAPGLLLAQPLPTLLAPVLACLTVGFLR
Description: Inhibitory activity against bovine carbonic anhydrase IV (CA4), isolated from bovine lung microsomes

For assay [3], the system named is Rattus norvegicus. The assay can be described thus: Renal excretion of bicarbonate after administration of 5 mg/kg in rats. It is filed as functional, Kidney.
The test system of assay [4] is Rattus norvegicus. Put plainly: Renal excretion of bicarbonate after administration of 4 mg/kg in rats. It is filed as functional, Kidney.
The species named for assay [5] is Rattus norvegicus. Particulars: dose 10 mg/kg.

Sequence of Carbonic anhydrase 1 (P00915 whole entry): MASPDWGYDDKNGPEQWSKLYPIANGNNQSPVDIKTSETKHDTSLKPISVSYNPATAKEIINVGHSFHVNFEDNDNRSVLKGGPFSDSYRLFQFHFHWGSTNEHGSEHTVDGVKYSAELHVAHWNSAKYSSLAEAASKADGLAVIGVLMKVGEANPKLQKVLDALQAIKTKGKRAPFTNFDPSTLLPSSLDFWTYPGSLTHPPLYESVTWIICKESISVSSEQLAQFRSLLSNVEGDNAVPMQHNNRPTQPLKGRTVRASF

Regarding `Cc1cc(-c2ccccc2)cc(C)[n+]1CC(=O)Nc1nnc(S(N)(=O)=O)s1.[O-][Cl+3]([O-])([O-])[O-]`, the inhibitory constant (Ki) in assay [1] turned out to be 205 nM; in assay [2] it was 17 nM. The Bicarbonate level in assay [3] stood at 38.

For the molecule `CC(C)c1cc(-c2ccccc2)cc(C(C)C)[n+]1CC(=O)/N=c1/sc(S(N)(=O)=O)nn1C.[O-][Cl+3]([O-])([O-])[O-]`, the inhibition constant (Ki) stood at 300 nM in assay [1] and 35 nM in assay [2]. The same molecule gave a Bicarbonate level in assay [3] of 40.

As for `CCc1cc(-c2ccccc2)cc(CC)[n+]1CC(=O)Nc1ccc(S(=O)(=O)/N=c2/sc(S(N)(=O)=O)nn2C)cc1.[O-][Cl+3]([O-])([O-])[O-]`, the Bicarbonate level in assay [4] was 40. The inhibitory constant (Ki) in assay [1] was 13 nM; in assay [2] it was 10 nM.

In assay [5], `NS(=O)(=O)c1nnc(NS(=O)(=O)c2ccccc2)s1` [BENZOLAMIDE] showed a Bicarbonate level of 115.

Take `Cc1cc(C)[n+](CC(=O)Nc2ccc(S(N)(=O)=O)cc2Br)c(C)c1`: the results for the inhibition constant (Ki) in assay [1] and in assay [2] were 800 nM and 77 nM, respectively.

On to `Cc1cc(-c2ccccc2)cc(C)[n+]1CC(=O)Nc1ccc(S(=O)(=O)Nc2nnc(S(N)(=O)=O)s2)cc1`, for which the Ki in assay [1] is 10 nM; in assay [2] it was 9 nM.

Turning to `CCc1cc(-c2ccccc2)cc(CC)[n+]1CC(=O)Nc1ccc(S(N)(=O)=O)cc1`, the results for the inhibition constant Ki in assay [1] and in assay [2] were 15000 nM and 170 nM, respectively.

As for `CCc1cc(-c2ccccc2)cc(CC)[n+]1CC(=O)Nc1ccc(S(=O)(=O)Nc2nnc(S(N)(=O)=O)s2)cc1`, the inhibition constant Ki in assay [1] was 12 nM; in assay [2], 9 nM.

Take `Cc1cc(-c2ccccc2)cc(C)[n+]1CC(=O)Nc1cc(C(F)(F)F)c(S(N)(=O)=O)cc1S(N)(=O)=O`: the Ki in assay [1] worked out at 300 nM; in assay [2] it was 33 nM.

Turning to `CC(C)c1cc(-c2ccccc2)cc(C(C)C)[n+]1CC(=O)Nc1ccc(S(N)(=O)=O)cc1I`, the inhibition constant Ki in assay [1] worked out at 630 nM; in assay [2], 75 nM.

Consider `Cc1cc(C)[n+](CC(=O)OCc2ccc(S(N)(=O)=O)cc2)c(C)c1`, for which the Ki in assay [1] turned out to be 1800 nM; in assay [2], 140 nM.

As for `Cc1cc(C)[n+](CC(=O)Nc2cc(C(F)(F)F)c(S(N)(=O)=O)cc2S(N)(=O)=O)c(C)c1`, the inhibitory constant (Ki) in assay [1] came to 320 nM; in assay [2], 58 nM.

Regarding `Cc1cc(C)[n+](CC(=O)NCCC(=O)Nc2nnc(S(N)(=O)=O)s2)c(C)c1`, the inhibition constant (Ki) in assay [1] is 43 nM; in assay [2] it was 18 nM.

Consider `Cc1cc(C)[n+](CC(=O)Nc2ccc(S(N)(=O)=O)cc2)c(C)c1`, for which the Ki in assay [1] is 16000 nM; in assay [2], 190 nM.

With `CCc1cc(-c2ccccc2)cc(CC)[n+]1CC(=O)Nc1c(S(N)(=O)=O)cc(S(N)(=O)=O)c(Cl)c1Cl`, the Ki in assay [1] was 400 nM; in assay [2] it was 35 nM.

Regarding `Cc1cc(-c2ccccc2)cc(C)[n+]1CC(=O)/N=c1/sc(S(N)(=O)=O)nn1C`, the Ki in assay [1] was 200 nM; in assay [2], 16 nM.

`Cc1cc(-c2ccccc2)cc(C)[n+]1CC(=O)Oc1ccc2nc(S(N)(=O)=O)sc2c1`: the Ki was 11 nM in assay [1] and 17 nM in assay [2].

For `CCc1cc(-c2ccccc2)cc(CC)[n+]1CC(=O)Nc1nccc(Nc2ccc(S(N)(=O)=O)cc2)n1`, the Ki in assay [1] came out at 45 nM; in assay [2], 58 nM.

As to `CCc1cc(-c2ccccc2)cc(CC)[n+]1CC(=O)Nc1cc(Cl)c(S(N)(=O)=O)cc1S(N)(=O)=O`, the Ki in assay [1] is 350 nM; in assay [2], 36 nM.

`CC(C)c1cc(-c2ccccc2)cc(C(C)C)[n+]1CC(=O)Nc1ccc(S(=O)(=O)Nc2cccc(S(N)(=O)=O)c2)cc1`: the inhibition constant (Ki) in assay [1] worked out at 53 nM; in assay [2], 72 nM.

Turning to `CCc1cc(-c2ccccc2)cc(CC)[n+]1CC(=O)Nc1ccccc1S(N)(=O)=O`, the Ki in assay [1] stood at 27500 nM; in assay [2], 335 nM.

Consider `CCc1cc(-c2ccccc2)cc(CC)[n+]1CC(=O)OCc1ccc(S(N)(=O)=O)cc1`, for which the Ki in assay [1] was determined as 1700 nM; in assay [2], 97 nM.

Consider `CCc1cc(-c2ccccc2)cc(CC)[n+]1CC(=O)Nc1nnc(S(N)(=O)=O)s1`, for which the Ki in assay [1] came to 300 nM; in assay [2], 25 nM.

For the molecule `Cc1cc(-c2ccccc2)cc(C)[n+]1CC(=O)Nc1ccc(S(=O)(=O)/N=c2/sc(S(N)(=O)=O)nn2C)cc1`, the inhibition constant Ki in assay [1] was found to be 11 nM; in assay [2] it was 8 nM.

Regarding `Cc1cc(C)[n+](CC(=O)Nc2ccccc2S(N)(=O)=O)c(C)c1`, the values for the Ki in assay [1] and in assay [2] were 32000 nM and 425 nM, respectively.

Regarding `CC(C)c1cc(-c2ccccc2)cc(C(C)C)[n+]1CC(=O)Nc1ccc(S(N)(=O)=O)cc1Br`, the inhibition constant Ki in assay [1] is 645 nM; in assay [2] it was 70 nM.

For `Cc1cc(-c2ccccc2)cc(C)[n+]1CC(=O)OCCOc1ccc2nc(S(N)(=O)=O)sc2c1`, the Ki in assay [1] amounted to 9 nM; in assay [2], 16 nM.

For `Cc1cc(C)[n+](CC(=O)/N=c2/sc(S(N)(=O)=O)nn2C)c(C)c1`, the Ki worked out at 330 nM in assay [1] and 60 nM in assay [2].

`Cc1cc(C)[n+](CC(=O)Nc2cccc(S(N)(=O)=O)c2)c(C)c1`: the values for the inhibition constant (Ki) in assay [1] and in assay [2] were 24000 nM and 410 nM, respectively.

On to `CCc1cc(-c2ccccc2)cc(CC)[n+]1CC(=O)Nc1ccc(S(=O)(=O)Nc2cccc(S(N)(=O)=O)c2)cc1`, for which the Ki was 43 nM in assay [1] and 60 nM in assay [2].

With `CC(C)c1cc(-c2ccccc2)cc(C(C)C)[n+]1CC(=O)OCc1ccc(S(N)(=O)=O)cc1`, the Ki stood at 1770 nM in assay [1] and 120 nM in assay [2].

Turning to `Cc1cc(C)[n+](CC(=O)NCc2ccc(S(N)(=O)=O)cc2)c(C)c1`, the results for the Ki in assay [1] and in assay [2] were 1500 nM and 80 nM, respectively.

Consider `CC(C)c1cc(-c2ccccc2)cc(C(C)C)[n+]1CC(=O)Nc1ccc(S(=O)(=O)Nc2ccc(S(N)(=O)=O)cc2)cc1`, for which the inhibition constant (Ki) in assay [1] was 50 nM; in assay [2] it was 73 nM.

As for `Cc1cc(C)[n+](CC(=O)Nc2nnc(S(N)(=O)=O)s2)c(C)c1`, the results for the Ki in assay [1] and in assay [2] were 300 nM and 50 nM, respectively.

Turning to `CCc1cc(-c2ccccc2)cc(CC)[n+]1CC(=O)Nc1ccc(S(N)(=O)=O)cc1I`, the inhibition constant (Ki) in assay [1] was 620 nM; in assay [2], 64 nM.

Consider `CCc1cc(-c2ccccc2)cc(CC)[n+]1CC(=O)OCCc1ccc(S(N)(=O)=O)cc1`, for which the inhibition constant Ki in assay [1] worked out at 1500 nM; in assay [2] it was 84 nM.

As for `CC(C)c1cc(-c2ccccc2)cc(C(C)C)[n+]1CC(=O)OCCc1ccc(S(N)(=O)=O)cc1`, the inhibition constant Ki in assay [1] was 1650 nM; in assay [2] it was 115 nM.

As for `Cc1cc(-c2ccccc2)cc(C)[n+]1CC(=O)Nc1ccc(S(=O)(=O)Nc2ccc(S(N)(=O)=O)cc2)cc1`, the values for the Ki in assay [1] and in assay [2] were 41 nM and 54 nM, respectively.

Turning to `Cc1cc(C)[n+](CC(=O)Nc2ccc(S(=O)(=O)Nc3ccc(S(N)(=O)=O)cc3)cc2)c(C)c1`, the Ki in assay [1] is 55 nM; in assay [2] it was 78 nM.

`Cc1cc(C)[n+](CC(=O)Nc2ccc(S(N)(=O)=O)cc2Cl)c(C)c1`: the values for the inhibition constant (Ki) in assay [1] and in assay [2] were 680 nM and 70 nM, respectively.

In the case of `CCc1cc(-c2ccccc2)cc(CC)[n+]1CC(=O)Oc1ccc2nc(S(N)(=O)=O)sc2c1`, the inhibitory constant (Ki) in assay [1] stood at 11 nM; in assay [2], 27 nM.

Regarding `CC(C)c1cc(-c2ccccc2)cc(C(C)C)[n+]1CC(=O)Nc1ccc(S(=O)(=O)Nc2nnc(S(N)(=O)=O)s2)cc1`, the figures for the Ki in assay [1] and in assay [2] were 14 nM and 10 nM, respectively.

Regarding `CCc1cc(-c2ccccc2)cc(CC)[n+]1CC(=O)NNc1ccc(S(N)(=O)=O)cc1`, the Ki in assay [1] was found to be 28000 nM; in assay [2], 340 nM.

With `CC(C)c1cc(-c2ccccc2)cc(C(C)C)[n+]1CC(=O)Nc1cc(C(F)(F)F)c(S(N)(=O)=O)cc1S(N)(=O)=O`, the Ki was found to be 310 nM in assay [1] and 42 nM in assay [2].

`Cc1cc(C)[n+](CC(=O)Nc2ccc3nc(S(N)(=O)=O)sc3c2)c(C)c1`: the Ki in assay [1] came to 15 nM; in assay [2], 50 nM.

Take `Cc1cc(C)[n+](CC(=O)Nc2ccc(S(N)(=O)=O)cc2F)c(C)c1`: the Ki in assay [1] was determined as 750 nM; in assay [2], 44 nM.
